Assay results reported in the supplement of paper PMC10307832.

Legend:
Experiment in all cases: relative viability (nuclei count vs DMSO), 5 days (fraction); higher = more cells survive
[1] = compound: CCN1C(=O)C2=CC(=C(N=C2N(C1=O)C3CC3)N)C(=O)N + O=C(c1cc(Cc2n[nH]c(=O)c3ccccc23)ccc1F)N1CCN(C(=O)C2CC2)CC1 [Olaparib] (partner 8 µM)
In short: (§1)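 For relative viability, nuclei counts in treated wells were divided by those in vehicle wells. Lung cancer cell lines had been pin-tool dosed in 1536-well plates the day after seeding and cultured for 5 days, then fixed and stained in one step (final 0.05% Triton X-100, 1% formaldehyde, 1 ug/ml Hoechst) and imaged at 4×. Doses were one drug alone or a fixed anchor-drug dose plus five library-drug doses (not always all listed) in √10 steps, and values are duplicate-plate medians.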

[2] = compound: CCN1C(=O)C2=CC(=C(N=C2N(C1=O)C3CC3)N)C(=O)N + C[C@@H](Oc1cc(-c2cnn(C3CCNCC3)c2)cnc1N)c1c(Cl)ccc(F)c1Cl [Crizotinib] (partner 1 µM)
In short: as §1

[3] = compound: CCN1C(=O)C2=CC(=C(N=C2N(C1=O)C3CC3)N)C(=O)N + Nc1nc2[nH]cc(CCc3ccc(C(=O)N[C@@H](CCC(=O)O)C(=O)O)cc3)c2c(=O)[nH]1 [Pemetrexed] (partner 0.2 µM)
In short: as §1

[4] = compound: CCN1C(=O)C2=CC(=C(N=C2N(C1=O)C3CC3)N)C(=O)N + CC(=O)Nc1cccc(-n2c(=O)n(C3CC3)c(=O)c3c(Nc4ccc(I)cc4F)n(C)c(=O)c(C)c32)c1 [Trametinib] (partner 0.02 µM)
In short: as §1

[5] = compound: CCN1C(=O)C2=CC(=C(N=C2N(C1=O)C3CC3)N)C(=O)N + C[C@]1(O)C[C@@H](c2nc(-c3ccc4ccc(-c5ccccc5)nc4c3)c3c(N)nccn32)C1 [Linsitinib] (partner 1 µM)
In short: as §1

| Cell Line | relative viability ([1]; first compound 0.253 µM) | relative viability ([1]; first compound 0.8 µM) | relative viability ([1]; first compound 2.53 µM) | relative viability ([1]; first compound 8 µM) | relative viability ([2]; first compound 0.253 µM) | relative viability ([2]; first compound 0.8 µM) | relative viability ([2]; first compound 2.53 µM) | relative viability ([2]; first compound 8 µM) | relative viability ([3]; first compound 0.253 µM) | relative viability ([3]; first compound 0.8 µM) | relative viability ([3]; first compound 2.53 µM) | relative viability ([3]; first compound 8 µM) | relative viability ([4]; first compound 0.253 µM) | relative viability ([4]; first compound 0.8 µM) | relative viability ([4]; first compound 2.53 µM) | relative viability ([4]; first compound 8 µM) | relative viability ([5]; first compound 0.253 µM) | relative viability ([5]; first compound 0.8 µM) | relative viability ([5]; first compound 2.53 µM) | relative viability ([5]; first compound 8 µM) |
| --- | --- | --- | --- | --- | --- | --- | --- | --- | --- | --- | --- | --- | --- | --- | --- | --- | --- | --- | --- | --- |
| NCI-H2023 | 0.463 | 0.477 | 0.451 | 0.487 | 0.639 | 0.622 | 0.585 | 0.606 | 0.198 | 0.182 | 0.222 | 0.247 | 0.587 | 0.61 | 0.503 | 0.589 | 0.68 | 0.621 | 0.548 | 0.652 |
| NCI-H2085 | 0.835 | 0.815 | 0.72 | 0.814 | 0.861 | 0.985 | 0.84 | 1.01 | 0.914 | 0.847 | 0.987 | 0.851 | 0.588 | 0.538 | 0.52 | 0.428 | 0.969 | 0.754 | 0.799 | 0.863 |
| NCI-H2087 | 0.638 | 0.82 | 0.643 | 0.585 | 0.809 | 0.937 | 0.627 | 0.872 | 0.676 | 0.629 | 0.677 | 0.608 | 0.228 | 0.184 | 0.217 | 0.193 | 1.02 | 0.963 | 0.971 | 1.04 |
| NCI-H2126 | 0.876 | 0.932 | 0.887 | 0.939 | 1.03 | 1.02 | 1.01 | 0.977 | 0.682 | 0.671 | 0.674 | 0.674 | 0.574 | 0.583 | 0.56 | 0.554 | 0.741 | 0.745 | 0.656 | 0.718 |
| NCI-H2228 | 0.827 | 0.723 | 0.577 | 0.282 | 0.452 | 0.535 | 0.433 | 0.507 | 0.35 | 0.464 | 0.336 | 0.372 | 0.37 | 0.597 | 0.359 | 0.594 | 0.984 | 0.943 | 0.606 | 0.969 |
| NCI-H2347 | 0.576 | 0.612 | 0.55 | 0.518 | 0.862 | 0.841 | 0.712 | 0.719 | 0.458 | 0.442 | 0.421 | 0.447 | 0.183 | 0.299 | 0.307 | 0.307 | 1.04 | 1.03 | 0.925 | 0.845 |
| NCI-H2405 | 0.9 |  | 0.904 | 0.91 | 0.866 | 0.844 | 0.817 | 0.873 | 1.1 |  | 1.14 | 1.03 | 0.689 |  | 0.661 | 0.602 | 1.05 | 0.954 | 1.04 | 0.988 |
| NCI-H3122 | 0.636 | 0.659 | 0.624 | 0.581 | 0.257 | 0.273 | 0.27 | 0.277 | 0.217 | 0.198 | 0.202 | 0.192 | 0.224 | 0.21 | 0.266 | 0.224 | 1.04 | 0.96 | 0.982 | 1.06 |
